≈ marks a conversion by molar mass, not a printed value.
How the values were obtained:
Type in all cases: functional
Candida albicans [1] = assay: Antifungal activity against Candida albicans ATCC 90028 assessed as growth inhibition incubated for 24 hrs
Candida albicans [2] = assay: Antifungal activity against Candida albicans assessed as fungal growth inhibition by CLSI based method
Cryptococcus neoformans = assay: Antifungal activity against Cryptococcus neoformans assessed as fungal growth inhibition by CLSI based method
Candida albicans [3] = assay: Antifungal activity against Candida albicans assessed as inhibition of fungal growth
Aspergillus flavus [4] = assay: Antifungal activity against Aspergillus flavus assessed as inhibition of fungal growth
Rhizopus = assay: Antifungal activity against Rhizopus assessed as inhibition of fungal growth
Escherichia coli [5] = assay: Antibacterial activity against Escherichia coli assessed as reduction in bacterial growth
Aspergillus niger [6] = assay: Antifungal activity against Aspergillus niger assessed as fungal growth inhibition
Candida albicans [7] = assay: Antifungal activity against Candida albicans assessed as diameter of inhibition zone at 50 to 100 ug/ml by disc-diffusion method; details: dose 50-100 µg/ml
Aspergillus flavus [8] = assay: Antifungal activity against Aspergillus flavus assessed as diameter of inhibition zone at 50 to 100 ug/ml by disc-diffusion method; details: dose 50-100 µg/ml
Pseudomonas aeruginosa [9] = assay: Antibacterial activity against Pseudomonas aeruginosa MTCC 1034 assessed as reduction in bacterial growth
Bacillus subtilis [10] = assay: Antibacterial activity against Bacillus subtilis MTCC 441 assessed as reduction in bacterial growth
Escherichia coli [11] = assay: Antibacterial activity against Escherichia coli ATCC 8739 assessed as reduction in bacterial growth by micro-broth dilution method
Pseudomonas aeruginosa [12] = assay: Antibacterial activity against Pseudomonas aeruginosa MCCB 0035 assessed as reduction in bacterial growth by micro-broth dilution method
Staphylococcus aureus [13] = assay: Antibacterial activity against Staphylococcus aureus ATCC 29213 assessed as reduction in bacterial growth by micro-broth dilution method
Aspergillus fumigatus = assay: […] activity against Aspergillus fumigatus NCIM 2081 assessed as reduction in […] by micro-broth dilution method
Aspergillus niger [14] = assay: […] activity against Aspergillus niger NCIM 2191 assessed as reduction in […] by micro-broth dilution method
Candida albicans [15] = assay: Antifungal activity against Candida albicans NCIM 2087 assessed as fungal growth inhibition
Staphylococcus aureus [16] = assay: Antibacterial activity against Staphylococcus aureus
Bacillus subtilis [17] = assay: Antibacterial activity against Bacillus subtilis assessed as reduction in bacterial growth
Staphylococcus aureus [18] = assay: Antibacterial activity against Staphylococcus aureus assessed as diameter of inhibition zone
Staphylococcus aureus [19] = assay: Antibacterial activity against Staphylococcus aureus assessed as inhibition of bacterial growth
Escherichia coli [20] = assay: Antibacterial activity against Escherichia coli assessed as inhibition of bacterial growth
Klebsiella pneumoniae [21] = assay: Antibacterial activity against Klebsiella pneumoniae assessed as inhibition of bacterial growth
Staphylococcus aureus [22] = assay: Antimicrobial activity against Staphylococcus aureus assessed as diameter of inhibition zone incubated for 24 hrs by disc-diffusion method
Escherichia coli [23] = assay: Antimicrobial activity against Escherichia coli assessed as diameter of inhibition zone incubated for 24 hrs by disc-diffusion method
Klebsiella pneumoniae [24] = assay: Antimicrobial activity against Klebsiella pneumoniae assessed as diameter of inhibition zone incubated for 24 hrs by disc-diffusion method
Candida albicans [25] = assay: Antimicrobial activity against Candida albicans assessed as diameter of inhibition zone incubated for 24 hrs by disc-diffusion method
Staphylococcus aureus [26] = assay: Antibacterial activity against Staphylococcus aureus assessed as reduction in bacterial growth incubated for 24 hrs by broth microdilution method

CCCNC(=O)c1nnn(-c2ccc(Br)cc2)c1C
growth inhibition (GI) (Candida albicans [1]): 13.2%

O=C(c1ccc(Cl)cc1)C(Cc1ccccc1)n1cncn1 (centres undefined)
MIC (Candida albicans [2]): 0.5 µg/mL (≈ 1.6 µM) | MIC (Cryptococcus neoformans): 0.5 µg/mL (≈ 1.6 µM)

C[C@@H]1[C@H](O)[C@@H](C)/C=C/C=C/C=C/C=C/C=C/C=C/C=C/[C@H](O[C@@H]2O[C@H](C)[C@@H](O)[C@H](N)[C@@H]2O)C[C@@H]2O[C@](O)(C[C@@H](O)C[C@@H](O)[C@H](O)CC[C@@H](O)C[C@@H](O)CC(=O)O[C@H]1C)C[C@H](O)[C@H]2C(=O)O [AMPHOTERICIN B]
MIC (Candida albicans [3]): 8 µg/mL (≈ 8.66 µM) | MIC (Aspergillus flavus [4]): 8 µg/mL (≈ 8.66 µM) | MIC (Rhizopus): 16 µg/mL (≈ 17.3 µM)

O=C(Cn1cc(COc2ccc(C(=O)/C=C/c3ccccc3)cc2)nn1)Nc1ccc([N+](=O)[O-])cc1
MIC (Escherichia coli [5]): 12 µM (≈ 5.8 µg/mL) | MIC (Aspergillus niger [6]): 12 µM

CCOC(=O)C1=C(C)Oc2nc(C)n(Cc3cn(-c4cccc(C(F)(F)F)c4)nn3)c(=O)c2C1c1ccc([N+](=O)[O-])cc1 (centres undefined)
diameter of the inhibition zone (DIZ) (Candida albicans [7]): 10.5 mm | diameter of the inhibition zone (DIZ) (Aspergillus flavus [8]): 10.5 mm

CCOC(=O)C1=C(C)Oc2nc(C)n(Cc3cn(-c4cccc(F)c4)nn3)c(=O)c2C1c1ccc([N+](=O)[O-])cc1 (centres undefined)
diameter of the inhibition zone (DIZ) (Candida albicans [7]): 12 mm | diameter of the inhibition zone (DIZ) (Aspergillus flavus [8]): 12 mm

C=CCCC1CC(=O)N1Cc1cn(-c2ccc(OC)cc2)nn1 (centres undefined)
MIC (Pseudomonas aeruginosa [9]): 1.25 µg/mL (≈ 4 µM) | MIC (Bacillus subtilis [10]): 1.25 µg/mL (≈ 4 µM)

CCCCCCCCCCCCCCCc1nnc(S)n1/N=C\c1ccc([N+](=O)[O-])cc1
MIC (Aspergillus niger [6]): 27.1 µg/mL

O=c1cc(-c2ccccc2)c2cc(F)ccc2n1Cc1nnc2n1N=C(c1ccccc1)CS2
MIC (Escherichia coli [11]): 8 µg/mL (≈ 17.1 µM) | MIC (Pseudomonas aeruginosa [12]): 8 µg/mL (≈ 17.1 µM) | MIC (Staphylococcus aureus [13]): 2 µg/mL (≈ 4.28 µM) | MIC (Aspergillus fumigatus): 4 µg/mL (≈ 8.56 µM) | MIC (Aspergillus niger [14]): 4 µg/mL (≈ 8.56 µM) | MIC (Candida albicans [15]): 2 µg/mL (≈ 4.28 µM)

Cc1ccc(NC(=O)Cn2cc(COc3ccc(C(=O)/C=C/c4ccccc4)cc3)nn2)cc1
MIC (Staphylococcus aureus [16]): 13 µM (≈ 5.88 µg/mL) | MIC (Bacillus subtilis [17]): 13 µM (≈ 5.88 µg/mL)

CCCCC(=O)c1cc(C(=O)CCCC)cc(-n2cc(C(C)N3C(=O)C(=O)c4ccccc43)nn2)c1 (centres undefined)
diameter of the inhibition zone (DIZ) (Staphylococcus aureus [18]): 6 mm

COc1cc(N2CCC(c3n[nH]c(=S)n3-c3ccc(Cl)cc3)CC2)ccc1Cl
MIC (Staphylococcus aureus [19]): 8 µg/mL (≈ 18.4 µM) | MIC (Escherichia coli [20]): 4 µg/mL (≈ 9.19 µM) | MIC (Klebsiella pneumoniae [21]): 8 µg/mL (≈ 18.4 µM) | MIC (Candida albicans [3]): 4 µg/mL (≈ 9.19 µM) | MIC (Aspergillus flavus [4]): 8 µg/mL (≈ 18.4 µM) | MIC (Rhizopus): 8 µg/mL (≈ 18.4 µM)

COc1cc(/C=N/n2c(-c3ccc(Cl)cc3)n[nH]c2=S)ccc1O
diameter of the inhibition zone (DIZ) (Staphylococcus aureus [22]): 4 mm | diameter of the inhibition zone (DIZ) (Escherichia coli [23]): 4 mm | diameter of the inhibition zone (DIZ) (Klebsiella pneumoniae [24]): 4 mm | diameter of the inhibition zone (DIZ) (Candida albicans [25]): 4 mm

CCCNC(=O)c1nnn(-c2ccc(CC)cc2)c1C
growth inhibition (GI) (Candida albicans [1]): 14.1%

O=c1cc(-c2ccccc2)c2cc(Cl)ccc2n1Cc1nnc2n1N=C(c1ccccc1)CS2
MIC (Escherichia coli [11]): 2 µg/mL (≈ 4.13 µM) | MIC (Pseudomonas aeruginosa [12]): 4 µg/mL (≈ 8.26 µM) | MIC (Staphylococcus aureus [13]): 2 µg/mL (≈ 4.13 µM) | MIC (Aspergillus fumigatus): 8 µg/mL (≈ 16.5 µM) | MIC (Aspergillus niger [14]): 2 µg/mL (≈ 4.13 µM) | MIC (Candida albicans [15]): 1 µg/mL (≈ 2.07 µM)

C=CCCC1CC(=O)N1Cc1cn(-c2cccc(Cl)c2)nn1 (centres undefined)
MIC (Pseudomonas aeruginosa [9]): 1.25 µg/mL (≈ 3.95 µM) | MIC (Bacillus subtilis [10]): 1.25 µg/mL (≈ 3.95 µM)

COc1cc(N2CCC(c3n[nH]c(=S)n3-c3cc(Cl)cc(Cl)c3)CC2)ccc1Cl
MIC (Staphylococcus aureus [19]): 16 µg/mL (≈ 34.1 µM) | MIC (Escherichia coli [20]): 8 µg/mL (≈ 17 µM) | MIC (Klebsiella pneumoniae [21]): 8 µg/mL (≈ 17 µM) | MIC (Candida albicans [3]): 16 µg/mL (≈ 34.1 µM) | MIC (Aspergillus flavus [4]): 32 µg/mL (≈ 68.1 µM) | MIC (Rhizopus): 32 µg/mL (≈ 68.1 µM)

COCCOCCOCCOCCOC(=O)c1cc(C(=O)OCCOCCOCCOC)cc(-n2cc(CN3C(=O)C(=O)c4ccccc43)nn2)c1
diameter of the inhibition zone (DIZ) (Staphylococcus aureus [18]): 12 mm

S=c1[nH]nc(-c2ccc(Cl)cc2Cl)n1/N=C/c1ccco1
diameter of the inhibition zone (DIZ) (Staphylococcus aureus [22]): 3 mm | diameter of the inhibition zone (DIZ) (Escherichia coli [23]): 3 mm | diameter of the inhibition zone (DIZ) (Klebsiella pneumoniae [24]): 3 mm | diameter of the inhibition zone (DIZ) (Candida albicans [25]): 3 mm

O=c1cc(-c2ccccc2)c2cc(Br)ccc2n1Cc1nnc2n1N=C(c1ccccc1)CS2
MIC (Escherichia coli [11]): 2 µg/mL (≈ 3.78 µM) | MIC (Pseudomonas aeruginosa [12]): 4 µg/mL (≈ 7.57 µM) | MIC (Staphylococcus aureus [13]): 1 µg/mL (≈ 1.89 µM) | MIC (Aspergillus fumigatus): 32 µg/mL (≈ 60.6 µM) | MIC (Aspergillus niger [14]): 4 µg/mL (≈ 7.57 µM) | MIC (Candida albicans [15]): 2 µg/mL (≈ 3.78 µM)

O=C(c1ccc(Br)cc1)C(Cc1ccccc1)n1cncn1 (centres undefined)
MIC (Candida albicans [2]): 0.5 µg/mL (≈ 1.4 µM) | MIC (Cryptococcus neoformans): 0.5 µg/mL (≈ 1.4 µM)

CCOc1cccc(-n2cc(C(C)N3C(=O)C(=O)c4ccccc43)nn2)c1 (centres undefined)
diameter of the inhibition zone (DIZ) (Staphylococcus aureus [18]): 10 mm

COc1ccc(NC(=O)NCc2cn(CC(=O)Nc3ccc(C(F)(F)F)cc3)nn2)cc1
MIC (Staphylococcus aureus [16]): 27 µM (≈ 12.1 µg/mL)

Cc1ccccc1-n1cc(Cn2c3ccccc3c(=O)c3ccccc32)nn1
MIC (Staphylococcus aureus [26]): 10.1 µg/mL (≈ 27.6 µM)

COc1cc(/C=N/n2c(-c3ccc(Cl)cc3Cl)n[nH]c2=S)ccc1O
diameter of the inhibition zone (DIZ) (Staphylococcus aureus [22]): 3 mm | diameter of the inhibition zone (DIZ) (Escherichia coli [23]): 3 mm | diameter of the inhibition zone (DIZ) (Klebsiella pneumoniae [24]): 3 mm | diameter of the inhibition zone (DIZ) (Candida albicans [25]): 3 mm
